Tests used:
[1] = target: rumen fluid supernatant amylases; assay: Rumen bacterial amylase assay, protocol 1 (Sigma amylase kit 577); assay type: biochemical, rumen bacteria, Hereford×Friesian calves; conditions: for IC50: rumen fluid amylase screen using Sigma kit 577
From the text: Rumen Bacterial Amylase Assay—Protocol 1
The enzymatic reactions involved in the assay are as follows:
5 ET-G7PNP→(α-amylase)→2 ET-G5+2 G2PNP+2 ET-G4+2 G3PNP+ET-G3+G4-PNP2 G2PNP+2 G3 PNP→(α-glucosidase)→4 PNP +10 glucose
α-Amylase hydrolyses 4,6-ethylidene-G7-PNP (ET-G7 PNP) to G2, G3 and G4 PNP fragments. α-Glucosidase (α-1,4-glucan glucohydrolase EC 3.2.1.3) hydrolyses G2PNP and G3PNP to yield p-nitrophenol and glucose. Five moles of substrate (ET-G7PNP) is hydrolysed to yield 4 moles of p-nitrophenol p-Nitrophenol absorbs light as 405 nm, and following a two minute lag period the rate of increase in absorbance at 405 nm is directly proportional to α-amylase activity in the well.
Rumen fluid was collected from 4-month-old Hereford×Friesian calves (125–135 kg, supplied by Cwmnant Calves Ltd. Cwmnant. Tregaron. Ceredigion) fed on diet GH 313. The rumen fluid was collected from slaughtered calves into pre-warmed vacuum flasks, as soon as possible after euthanasia. It was then filtered through a double layer of absorbent gauze (Absorbent gauze BP, GAUZ 4 from Robert Bailey plc, Stockport) to remove hay and feed particles. The liquid was centrifuged at a relative centrifugal force of 23,300 for 60 minutes, and the supernatant decanted, avoiding contamination from the loose top layer of the pellet by careful pouring. The supernatant was then aliquoted into 50 ml plastic tubes and frozen at […]. When required for use in an assay the rumen fluid supernatant was thawed by standing the tubes in cold water. Test compounds or controls were dispensed into the 96-well assay plate at 4 μl/well. 100 μl per well of Sigma amylase reagent 577 (made up to half the volume described in the instructions (i.e. 10 ml for a 577-20 vial)) was then added to each well, followed by 100 μl per well of rumen fluid supernatant. A T=0 reading at 405 nm was taken at this stage using an Anthos plate reader. The plate was then incubated at room temperature or 37° C. until an optical density window of approximately 1.000U was seen (typically one hour at 37° C. or three hours at room temperature). A second reading was taken at 405 nm, and the first reading subtracted from it. Active compounds cause a reduction in the optical density readings when compared to the control without the agent being tested.

[2] = test system: bacterial glucosidase activity from bovine rumen fluid cell suspension; assay: Rumen fluid glucosidase assay; assay type: biochemical, bovine rumen bacteria; conditions: rumen fluid glucosidase screen, maltose substrate
Experimental: Rumen Fluid Glucosidase Assay Protocol This assay is used to determine IC50 values for inhibitors of bacterial glucosidase activity from bovine rumen fluid cell suspension (RFCS) using a colorimetric assay. The assay measures conversion of maltose into glucose. Rumen fluid cells are incubated with maltose in the presence of inhibitors, and the amount of glucose produced is assessed using a red colourimetric endpoint. The higher the level of inhibition the lower the glucose produced and the less red colour produced. The plates are read at 450 nm. Main reaction: • Maltose+glucosidase→glucose Glucose assay • Glucose+ATP→[…] and ADP (Hexokinase and Mg^2+) • […] and NADP→6-phosphogluconate (6-PG) and NADPH • NADPH+phenazine methosulfate ([…] (iodonitrotetrazolium chloride)→[…] is deep red coloured. […] The rumen fluid was collected into pre-warmed vacuum flasks. It was then filtered through a double layer of absorbent gauze (Absorbent gauze BP, GAUZ 4 from Robert Bailey plc, Stockport) to remove hay and feed particles. The liquid was centrifuged at a relative centrifugal force of 650 for 15 minutes to remove food particles and protozoa. The supernatant was decanted into fresh tubes and centrifuged at a relative centrifugal force of 23,300 for 60 minutes. The supernatant and the loose top layer of the pellet were discarded. The pellet was resuspended in PBS at 1:8 of original volume i.e. 50 ml of PBS for the pellet from 400 ml of rumen fluid, and frozen at -20° C. When required for use the cells were thawed by standing the tube in cold water, and then diluted to […] of cells/well (45 μl/ml). Test compounds or controls were dispensed into the 96-well assay plate at 2 μl/well, followed by 50 μl per well of 10 mM maltose and 50 μl/well of rumen fluid cell suspension. The plate was incubated at 37° C. for 1 hour. Sigma glucose detection kit […] was reconstituted by addition of 17 ml of Millipore water and 4 ml of colour reagent to each vial. 100 μl of this solution was added per well and the plate returned to the 37° C. incubator for 45 minutes. The plate was then read at 450 nm. Active compounds cause a reduction in the optical density readings when compared to the no-inhibitor control wells.

[3] = target: rumen fluid supernatant amylases; assay: Rumen bacterial amylase assay, protocol 2 (amylose azure); conditions: read-out: Average IC50, rumen fluid amylase screen
[4] = test system: rumen fluid fermentation (RUSITEC chronic acidosis model); assay: RUSITEC rumen simulation, chronic acidosis model: Example 8 and acarbose; assay type: cell-based, cow; conditions: for proportional increase in butyrate production: treatment period vs control period (no treatment: 1%); for change in total VFA production: vs preceding control period (no treatment: −11%)
Experimental: RUSITEC Result using Example 8 and Acarbose
Daily maintenance procedures as previously described for Acarbose.
Rumen fluid donor cow—Fed GH313Pellets plus barley straw.
Daily Feed—30 g GH313 pellets plus 2.5 g chopped barley straw.
Acarbose: 1 tablet added to each bag to give 100 mg/vessel/d
Example 8: Eight×57 mg pre-weighed samples stored in fridge in […]. On the day before the feed bags were to be placed in RUSITEC, a 57 mg sample was dissolved in 2.28 ml buffer (25 mg/ml). 0.21 ml of this solution was added to 1.9 ml buffer to give a 2.5 mg/ml solution. 1 ml of each solution was added to a prepared feed bag to give 25 and 2.5 mg/vessel/d. and dried overnight at room temperature.

Row | Structure (SMILES) | IC50 [1] [µM] | IC50 [2] [µM] | IC50 [3] [µM] | effect in the amylase screen [1] | increase in mean daily pH ([4]; 0.02 mM) [units] | proportional increase in butyrate production ([4]; 2.5 mg per vessel per day) [%] | change in total VFA production ([4]; 2.5 mg per vessel per day) [%] | proportional increase in butyrate production ([4]; 25 mg per vessel per day) [%] | change in total VFA production ([4]; 25 mg per vessel per day) [%]
1 | CC1OC(OC2C(CO)OC(OC3C(CO)=CC(NC4C(C)OC(OC5C(CO)OC(OC6C(CO)OC(OC7C(CO)OC(OC8C(CO)OC(O)C(O)C8O)C(O)C7O)C(O)C6O)C(O)C5O)C(O)C4O)C(O)C3O)C(O)C2O)C(O)C(O)C1NC1C=C(CO)C(O)C(O)C1O (centres unmarked) [Example 8] | 0.44 | 13.1 | 9.45 | – | 0.3 | 18 | −1 | 20 | −8
2 | CC1OC(OC2C(CO)OC(OC3C(CO)=CC(NC4C(C)OC(OC5C(CO)OC(OC6C(CO)OC(OC7C(CO)OC(O)C(O)C7O)C(O)C6O)C(O)C5O)C(O)C4O)C(O)C3O)C(O)C2O)C(O)C(O)C1NC1C=C(CO)C(O)C(O)C1O (centres unmarked) [Example V-1532] | 0.57 | 65.5 | 2.07 | – | – | – | – | – | –
3 | C[C@H]1O[C@H](O[C@H]2[C@H](O)[C@@H](O)[C@@H](O[C@H]3[C@H](O)[C@@H](O)[C@@H](O[C@H]4[C@H](O)[C@@H](O)[C@@H](O[C@H]5O[C@H](CO)[C@@H](O)[C@H](O)[C@H]5O)O[C@@H]4CO)O[C@@H]3CO)O[C@@H]2CO)[C@H](O)[C@@H](O)[C@@H]1N[C@H]1C=C(CO)[C@@H](O[C@H]2O[C@H](CO)[C@@H](O[C@H]3O[C@H](C)[C@@H](NC4C=C(CO)[C@@H](O[C@H]5O[C@H](CO)[C@@H](O[C@H]6O[C@H](C)[C@@H](NC7C=C(CO)[C@@H](O)[C@H](O)[C@H]7O)[C@H](O)[C@H]6O)[C@H](O)[C@H]5O)[C@H](O)[C@H]4O)[C@H](O)[C@H]3O)[C@H](O)[C@H]2O)[C@H](O)[C@H]1O (some centres unmarked) [Trestatin C] | 0.09 | 148 | – | – | – | – | – | – | –

Continued by falling IC50 [2], values first:

Row | IC50 [1] [µM] | IC50 [2] [µM] | IC50 [3] [µM] | effect in the amylase screen [1] | Structure (SMILES) | increase in mean daily pH ([4]; 0.02 mM) [units] | proportional increase in butyrate production ([4]; 2.5 mg per vessel per day) [%] | change in total VFA production ([4]; 2.5 mg per vessel per day) [%] | proportional increase in butyrate production ([4]; 25 mg per vessel per day) [%] | change in total VFA production ([4]; 25 mg per vessel per day) [%]
4 | 0.17 | 33.6 | 0.79 | – | C[C@H]1O[C@H](O[C@@H]2[C@H](O)[C@H](O)[C@@H](O[C@@H]3[C@H](O)[C@@H](O)[C@@H](O[C@@H]4[C@H](O)[C@H](O)[C@@H](O[C@H]5O[C@@H](CO)[C@H](O)[C@H](O)[C@H]5O)O[C@@H]4CO)O[C@@H]3CO)O[C@H]2CO)[C@H](O)[C@@H](O)[C@@H]1N[C@H]1C=C(CO)[C@@H](O[C@H]2O[C@H](CO)[C@H](O[C@H]3O[C@H](C)[C@@H](N[C@H]4C=C(CO)[C@@H](O)[C@H](O)[C@H]4O)[C@H](O)[C@H]3O)[C@H](O)[C@H]2O)[C@H](O)[C@H]1O (stereo in doubt) [Trestatin A] | – | – | – | – | –
5 | – | 6.38 | – | inhibiting effect | CC1OC(OC2C(CO)OC(OC3C(CO)OC(OC4C(CO)OC(OC5C(CO)OC(O)C(O)C5O)C(O)C4O)C(O)C3O)C(O)C2O)C(O)C(O)C1NC1C=C(CO)C(O)C(O)C1O (centres unmarked) [Example 7] | – | – | – | – | –
6 | 2.89 | 4.1 | – | – | C[C@H]1O[C@H](O[C@@H]2[C@H](O)[C@@H](O)[C@@H](O[C@@H]3[C@H](O)[C@@H](O)[C@@H](O[C@@H]4[C@H](O)[C@H](O)[C@@H](O[C@H]5O[C@H](CO)[C@H](O)[C@H](O)[C@H]5O)O[C@@H]4CO)O[C@@H]3CO)O[C@H]2CO)[C@@H](O)[C@@H](O)[C@@H]1N[C@@H]1C=C(CO)[C@@H](O)[C@@H](O)[C@@H]1O (stereo in doubt) [Trestatin B] | – | – | – | – | –

Source: patent US7271158B2, “Treatment of rumen acidosis with α-amylase inhibitors” (Pfizer Inc., priority 2000, dated 2007)
